Patent publication US6461997B1, “Triazole sulfones having herbicidal activity” (Monsanto Technology LLC, priority 1999, dated 2002)

What follows are compounds tested on AEGCY (jointed goatgrass) (assay: Post-emergence herbicidal activity, cool season). Conditions: abraded plants sprayed at 300, 100, 30 and 10 g/ha; about 14 days after treatment.
Assay type: in vivo, Aegilops cylindrica
Outline: (§1)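 Abraded seedling foliage receives a spray of test compound at four rates, 300 to 10 g/ha, in 50:50 acetone/water at 3,100 l/ha. After about 14 days in an 18/13° C. day/night greenhouse, inhibition is scored against abraded untreated controls and expressed as GR80.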
For `C=C(C)CC(F)(F)S(=O)(=O)c1ncn(C(=O)N(CC)CC)n1` [Example 18], the “Post-emergence activity GR80, AEGCY” value was “[empty]”. `C=C(Br)CC(F)(F)S(=O)(=O)c1ncn(C(=O)N(CC)CC)n1` [Example 19] was tested, and the “Post-emergence activity GR80, AEGCY” value was “[empty]”.

Each compound was assayed on SOLNI (black nightshade) (assay: Pre-emergence herbicidal activity, warm season). Conditions: GR80 = lowest tested rate (300, 100, 30, 10 g/ha) with 80% or greater inhibition; approx. 14 days after treating; 30/21° C.
Assay type: in vivo, Solanum nigrum
Outline: (§2)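 Seeds sown in sterilised fertilised topsoil received surface-applied compound in 50:50 acetone/water, typically at 300, 100, 30 and 10 g/ha, then greenhouse-grown at 30/21° C (warm-season species) or 18/13° C (cool-season species). Percent inhibition versus untreated plants was scored at about 14 days, giving GR80; an asterisk marks activity short of 80% at the top rate.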
In the case of `C=C(C)CC(F)(F)S(=O)(=O)c1ncn(C(=O)N(CC)CC)n1` [Example 18], the “Pre-emergence activity (GR80) SOLNI” value is reported as 100 g/ha. With `C=C(Br)CC(F)(F)S(=O)(=O)c1ncn(C(=O)N(CC)CC)n1` [Example 19] the “Pre-emergence activity (GR80) SOLNI” value was 300 g/ha.

The compounds below were run on ABUTH (velvetleaf) (assay: Pre-plant incorporated (PPI) herbicidal activity, warm season). Conditions: Abutilon theophrasti; PPI application, 10 g/ha; read-out: Percent inhibition ABUTH.
Assay type: in vivo, Abutilon theophrasti
Experimental: (§3) In another set of tests, the pre-plant incorporated (PPI) activity of compounds of this invention was evaluated on the same species as for the pre-emergence tests described above. In the PPI tests the following procedure, designed to simulate PPI application, was used.
(§4) A pre-prepared topsoil mixture (described above) was placed in a pot and compacted to a depth of 1.0 to 1.25 cm from the top of the pot. Seeds of each of several monocotyledonous and dicotyledonous annual plant species were placed on top of the soil. A sufficient quantity of soil to cover the seeds and level fill the pot was weighed into an open container. A known amount of the test compound was dissolved or suspended in an organic solvent and applied by spraying to this cover soil. The cover soil was thoroughly mixed to distribute the test compound throughout the cover soil, and was then applied as a cover layer over the seeds. Untreated soil was used as a cover layer for control pots. After treatment the plants were placed in a greenhouse where they received 0.64 cm of overhead irrigation. All subsequent watering consisted of a light overhead mist and/or subirrigation as needed for germination and growth. Tables 9 and 10 below relate to warm season plant species which were placed after pre-emergence treatment in a greenhouse with a 30/21° C. day/night temperature regime. Tables 11 and 12 below relates to cool season plant species placed after pre-emergence treatment in a greenhouse or growth chamber with an 18/13° C. day/night temperature regime. Only the compounds of Examples 1, 6, 8, 11, 13 and 15-20 were included in PPI tests.
(§5) Approximately 14 days after planting and treating, the plants were observed and herbicidal efficacy recorded as percent inhibition by comparison with untreated plants.
Work on `C=C(C)CC(F)(F)S(=O)(=O)c1ncn(C(=O)N(CC)CC)n1` [Example 18] yielded an inhibition at 10 g/ha of 0%. `C=C(Br)CC(F)(F)S(=O)(=O)c1ncn(C(=O)N(CC)CC)n1` [Example 19] showed an inhibition at 10 g/ha of 0%.

Same assay, conditions: Abutilon theophrasti; PPI application, 30 g/ha; read-out: Percent inhibition ABUTH
Work on `C=C(C)CC(F)(F)S(=O)(=O)c1ncn(C(=O)N(CC)CC)n1` [Example 18] yielded an inhibition at 30 g/ha of 0%. `C=C(Br)CC(F)(F)S(=O)(=O)c1ncn(C(=O)N(CC)CC)n1` [Example 19] showed an inhibition at 30 g/ha of 0%.

Same assay, conditions: Abutilon theophrasti; PPI application, 100 g/ha; read-out: Percent inhibition ABUTH
In the case of `C=C(C)CC(F)(F)S(=O)(=O)c1ncn(C(=O)N(CC)CC)n1` [Example 18], the inhibition at 100 g/ha is reported as 0%. With `C=C(Br)CC(F)(F)S(=O)(=O)c1ncn(C(=O)N(CC)CC)n1` [Example 19] the inhibition at 100 g/ha was 0%.

Same assay, conditions: Abutilon theophrasti; PPI application, 300 g/ha; read-out: Percent inhibition ABUTH
In the case of `C=C(C)CC(F)(F)S(=O)(=O)c1ncn(C(=O)N(CC)CC)n1` [Example 18], the inhibition at 300 g/ha is reported as 70%. In the case of `C=C(Br)CC(F)(F)S(=O)(=O)c1ncn(C(=O)N(CC)CC)n1` [Example 19], the inhibition at 300 g/ha is reported as 0%.

Same assay, conditions: Abutilon theophrasti; PPI application, 900 g/ha; read-out: Percent inhibition ABUTH
Work on `C=C(C)CC(F)(F)S(=O)(=O)c1ncn(C(=O)N(CC)CC)n1` [Example 18] yielded an inhibition at 900 g/ha of 90%. For `C=C(Br)CC(F)(F)S(=O)(=O)c1ncn(C(=O)N(CC)CC)n1` [Example 19], the inhibition at 900 g/ha was 60%.

Same assay, conditions: pre-plant incorporated; GR80 = lowest tested rate with 80% or greater inhibition; approx. 14 days after treating; 30/21° C.
For `C=C(C)CC(F)(F)S(=O)(=O)c1ncn(C(=O)N(CC)CC)n1` [Example 18], the “PPI activity (GR80) ABUTH” value was 100 g/ha. With `C=C(Br)CC(F)(F)S(=O)(=O)c1ncn(C(=O)N(CC)CC)n1` [Example 19] the “PPI activity (GR80) ABUTH” value was 30 g/ha.

What follows are compounds tested on SINAR (wild mustard) (assay: Pre-plant incorporated (PPI) herbicidal activity, cool season). Conditions: Brassica; weed, PPI application, 10 g/ha; read-out: Percent inhibition SINAR.
Assay type: in vivo, Sinapis arvensis
Experimental: as §3, §4, §5
Compound `C=C(C)CC(F)(F)S(=O)(=O)c1ncn(C(=O)N(CC)CC)n1` [Example 18] has an inhibition at 10 g/ha of 100%. With `C=C(Br)CC(F)(F)S(=O)(=O)c1ncn(C(=O)N(CC)CC)n1` [Example 19] the inhibition at 10 g/ha was 100%.

Same assay, conditions: Brassica; weed, PPI application, 30 g/ha; read-out: Percent inhibition SINAR
With `C=C(C)CC(F)(F)S(=O)(=O)c1ncn(C(=O)N(CC)CC)n1` [Example 18] the inhibition at 30 g/ha was 100%.

Same assay, conditions: Brassica; weed, PPI application, 100 g/ha; read-out: Percent inhibition SINAR
Work on `C=C(C)CC(F)(F)S(=O)(=O)c1ncn(C(=O)N(CC)CC)n1` [Example 18] yielded an inhibition at 100 g/ha of 80%. `C=C(Br)CC(F)(F)S(=O)(=O)c1ncn(C(=O)N(CC)CC)n1` [Example 19] showed an inhibition at 100 g/ha of 100%.

Same assay, conditions: Brassica; weed, PPI application, 300 g/ha; read-out: Percent inhibition SINAR
With `C=C(C)CC(F)(F)S(=O)(=O)c1ncn(C(=O)N(CC)CC)n1` [Example 18] the inhibition at 300 g/ha was 100%. With `C=C(Br)CC(F)(F)S(=O)(=O)c1ncn(C(=O)N(CC)CC)n1` [Example 19] the inhibition at 300 g/ha was 100%.

Same assay, conditions: Brassica; weed, PPI application, 900 g/ha; read-out: Percent inhibition SINAR
With `C=C(C)CC(F)(F)S(=O)(=O)c1ncn(C(=O)N(CC)CC)n1` [Example 18] the inhibition at 900 g/ha was 100%. With `C=C(Br)CC(F)(F)S(=O)(=O)c1ncn(C(=O)N(CC)CC)n1` [Example 19] the inhibition at 900 g/ha was 100%.

Same assay, conditions: pre-plant incorporated; lowest tested rate with 80% or greater inhibition; about 14 days
With `C=C(C)CC(F)(F)S(=O)(=O)c1ncn(C(=O)N(CC)CC)n1` [Example 18] the “PPI activity GR80, SINAR” value was 10 g/ha. For `C=C(Br)CC(F)(F)S(=O)(=O)c1ncn(C(=O)N(CC)CC)n1` [Example 19], the “PPI activity GR80, SINAR” value was 300 g/ha.

These compounds were tested on SETFA (giant foxtail) (assay: Pre-emergence herbicidal activity, warm season). Conditions: GR80 = lowest tested rate (300, 100, 30, 10 g/ha) with 80% or greater inhibition; approx. 14 days after treating; 30/21° C.
Assay type: in vivo, Setaria faberi
Outline: as §2
For `C=C(C)CC(F)(F)S(=O)(=O)c1ncn(C(=O)N(CC)CC)n1` [Example 18], the “Pre-emergence activity (GR80) SETFA” value was 100 g/ha. For `C=C(Br)CC(F)(F)S(=O)(=O)c1ncn(C(=O)N(CC)CC)n1` [Example 19], the “Pre-emergence activity (GR80) SETFA” value was 300 g/ha.

These compounds were tested on AGSST (creeping bentgrass) (assay: Post-emergence herbicidal activity, cool season). Conditions: abraded plants sprayed at 300, 100, 30 and 10 g/ha; about 14 days after treatment.
Assay type: in vivo, Agrostis stolonifera
Outline: as §1
`C=C(C)CC(F)(F)S(=O)(=O)c1ncn(C(=O)N(CC)CC)n1` [Example 18] was tested, and the “Post-emergence activity GR80, AGSST” value was “[empty]”. `C=C(Br)CC(F)(F)S(=O)(=O)c1ncn(C(=O)N(CC)CC)n1` [Example 19] was tested, and the “Post-emergence activity GR80, AGSST” value was “[empty]”.

Each compound was assayed on CIRAR (canada thistle (seedling)) (assay: Pre-emergence herbicidal activity, warm season). Conditions: GR80 = lowest tested rate (300, 100, 30, 10 g/ha) with 80% or greater inhibition; approx. 14 days after treating; 30/21° C.
Assay type: in vivo, Cirsium arvense
Outline: as §2
With `C=C(C)CC(F)(F)S(=O)(=O)c1ncn(C(=O)N(CC)CC)n1` [Example 18] the “Pre-emergence activity (GR80) CIRAR” value was 300 g/ha. With `C=C(Br)CC(F)(F)S(=O)(=O)c1ncn(C(=O)N(CC)CC)n1` [Example 19] the “Pre-emergence activity (GR80) CIRAR” value was 300 g/ha.
